Source: the supplement of paper PMC11061612

Assays:
Experiment in all cases: combination Emax (second highest fraction inhibited in the dose matrix, 72 h); higher = more inhibition; extreme values may be limits of the assay
[1] = system: SNG-M (Endometrial Carcinoma)
Procedure, shortened: (§1)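 Bliss excess equals the observed combination effect minus the expected value EA + EB − EA·EB, where EA and EB are the effects of each agent alone. Combination Emax is the second-highest inhibition within the matrix. Inhibition was scaled from CellTiter-Glo 2.0 luminescence, with 0 set by vehicle wells and 1 by blank wells, after 72 hours of two-drug dosing of cells plated in 1536-well plates.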

[2] = system: MES-SA (Other Solid Carcinomas)
Procedure, shortened: as §1

[3] = system: MEG-01 (Chronic Myelogenous Leukemia)
Procedure, shortened: as §1

[4] = system: SK-UT-1 (Other Solid Carcinomas)
Procedure, shortened: as §1

[5] = system: HCT-116 (Colorectal Carcinoma)
Procedure, shortened: as §1

[6] = system: RCC10RGB (Kidney Carcinoma)
Procedure, shortened: as §1

HCC38 (Breast Carcinoma) = system: HCC38 (Breast Carcinoma)
Procedure, shortened: as §1

[7] = system: PA-TU-8902 (Pancreatic Carcinoma)
Procedure, shortened: as §1

[8] = system: WSU-DLCL2 (B-Cell Non-Hodgkin's Lymphoma)
Procedure, shortened: as §1

[9] = system: SW948 (Colorectal Carcinoma)
Procedure, shortened: as §1

[10] = system: P31-FUJ (Acute Myeloid Leukemia)
Procedure, shortened: as §1

[11] = system: DOK (Oral Cavity Carcinoma)
Procedure, shortened: as §1

D-392MG (Glioblastoma) = system: D-392MG (Glioblastoma)
Procedure, shortened: as §1

[12] = system: SKN-3 (Head and Neck Carcinoma)
Procedure, shortened: as §1

[13] = system: HCC1143 (Breast Carcinoma)
Procedure, shortened: as §1

[14] = system: EFM-192A (Breast Carcinoma)
Procedure, shortened: as §1

[15] = system: HCC-827 (Lung Adenocarcinoma)
Procedure, shortened: as §1

[16] = system: NOMO-1 (Acute Myeloid Leukemia)
Procedure, shortened: as §1

[17] = system: JHH-6 (Hepatocellular Carcinoma)
Procedure, shortened: as §1

[18] = system: SK-LMS-1 (Other Solid Carcinomas)
Procedure, shortened: as §1

Structure (SMILES) | combination Emax [1] | combination Emax [2] | combination Emax [3] | combination Emax [4] | combination Emax [5] | combination Emax [6] | combination Emax (HCC38 (Breast Carcinoma)) | combination Emax [7] | combination Emax [8] | combination Emax [9] | combination Emax [10] | combination Emax [11] | combination Emax (D-392MG (Glioblastoma)) | combination Emax [12] | combination Emax [13] | combination Emax [14] | combination Emax [15] | combination Emax [16] | combination Emax [17] | combination Emax [18]
CN(CCO)CC[C@H](CSc1ccccc1)Nc1ccc(S(=O)(=O)NC(=O)c2ccc(N3CCC([C@@H](O)c4ccccc4-c4ccc(Cl)cc4)CC3)cc2)cc1S(=O)(=O)C(F)(F)F [AZD4320] + CN(C)CCCOc1ccc(-c2ccc3ncc4c(c3c2)n(C2CCOCC2)c(=O)n4C)cn1 [AZD0156] (first compound max 1 µM, 7x7, partner max 1 µM) | 0.328 | 0.128 | 0.898 | 0.0694 | 0.167 | 0.243 | 0.812 | 0.0883 | 0.581 | 0.248 | 0.814 | 0.136 | 0.218 | 0.102 | 0.252 | 0.234 | 0.22 | 0.377 | 0.129 | 0.371
CN(CCO)CC[C@H](CSc1ccccc1)Nc1ccc(S(=O)(=O)NC(=O)c2ccc(N3CCC([C@@H](O)c4ccccc4-c4ccc(Cl)cc4)CC3)cc2)cc1S(=O)(=O)C(F)(F)F [AZD4320] + C=CCn1c(=O)c2cnc(Nc3ccc(N4CCN(C)CC4)cc3)nc2n1-c1cccc(C(C)(C)O)n1 [AZD1775] (first compound max 1 µM, partner max 1 µM) | 0.903 | 0.865 | 0.994 | 0.693 | 0.572 | 0.552 | 0.903 | 0.296 | 1 | 0.745 | 0.983 | 0.504 | 0.763 | 0.368 | 0.588 | 0.302 | 0.301 | 0.97 | 0.271 | 0.778
CN(CCO)CC[C@H](CSc1ccccc1)Nc1ccc(S(=O)(=O)NC(=O)c2ccc(N3CCC([C@@H](O)c4ccccc4-c4ccc(Cl)cc4)CC3)cc2)cc1S(=O)(=O)C(F)(F)F [AZD4320] + Cc1cc2ncnn2cc1Nc1ncc2c(n1)n(C1CCOCC1)c(=O)n2C [AZD7648] (first compound max 1 µM, 7x7, partner max 10 µM) | 0.264 | 0.226 | 0.925 | 0.163 | 0.229 | 0.265 | 0.873 | 0.144 | 0.744 | 0.393 | 0.858 | 0.362 | 0.169 | 0.0826 | 0.282 | 0.226 | 0.182 | 0.475 | 0.174 | 0.447
CC1(C)CCC(CN2CCN(c3ccc(C(=O)NS(=O)(=O)c4ccc(NCC5CCOCC5)c([N+](=O)[O-])c4)c(Oc4cnc5[nH]ccc5c4)c3)CC2)=C(c2ccc(Cl)cc2)C1 [Venetoclax] + COc1cc(Nc2ncc3c(n2)-c2ccc(Cl)cc2C(c2c(F)cccc2OC)=NC3)ccc1C(=O)O [Alisertib] (first compound max 1 µM, 7x7, partner max 10 µM) | 0.752 | 0.671 | 0.817 | 0.458 | 0.581 | 0.568 | 0.179 | 0.394 | 0.995 | 0.926 | 0.906 | 0.646 | 0.416 | 0.374 | 0.469 | 0.167 | 0.457 | 0.884 | 0.301 | 0.579
NC1(C(=O)N[C@@H](CCO)c2ccc(Cl)cc2)CCN(c2ncnc3[nH]ccc23)CC1 [Capivasertib] + CC(C)n1c(=O)n(C)c2cnc3cc(F)c(-c4ccc(OCCCN5CCCCC5)nc4)cc3c21 [AZD1390] (first compound max 10 µM, 7x7, partner max 0.3 µM) | 0.29 | 0.469 | 0.256 | 0.354 | 0.373 | 0.2 | 0.352 | 0.278 | 1 | 0.575 | 0.645 | 0.5 | 0.228 | 0.2 | 0.174 | 0.402 | 0.322 | 0.429 | 0.309 | 0.324
CS(=O)(=O)CCNCc1ccc(-c2ccc3ncnc(Nc4ccc(OCc5cccc(F)c5)c(Cl)c4)c3c2)o1 [Lapatinib] + C[C@@H](Oc1cc(-c2cnn(C3CCNCC3)c2)cnc1N)c1c(Cl)ccc(F)c1Cl [Crizotinib] (first compound max 10 µM, 7x7, partner max 10 µM) | 0.955 | 0.813 | 0.992 | 0.511 | 0.956 | 0.908 | 0.556 | 0.775 | 0.924 | 0.819 | 0.957 | 0.979 | 0.498 | 0.738 | 0.875 | 0.878 | 0.896 | 0.828 | 0.683 | 0.864
